From patent US9593305B2, “Differentiation of pluripotent stem cells” (Janssen Biotech, Inc., priority 2008, dated 2017)

Tests used:
[1] = system: H1 human embryonic stem cells; experiment: Analogue screening in combination with only GDF-8, SOX17 (Example 21, Tables 18 and 19); type: cell-based; parameters: Sox17 Expression: % of positive control / Cell Number: % of positive control: tested at 2.5 µM; conditions: compound in combination with GDF8; for Cell Number: Average Total Cell Number / Sox17 Expression: Average Total Intensity: four assay plates; for Cell Number: % of positive control / Sox17 Expression: % of positive control: relative to Activin A/Wnt3a of the same plate
Protocol: Briefly, clusters of H1 human embryonic stem cells were grown on reduced growth factor Matrigel™ (Invitrogen; Cat #356231)-coated tissue culture plastic. Cells were passaged using collagenase (Invitrogen; Cat #17104-019) treatment and gentle scraping, washed to remove residual enzyme, and plated with even dispersal at a ratio of 1:1 (surface area) on reduced growth factor […]™ (BD Biosciences; Cat #356231)-coated 96-well black plates (Packard ViewPlates; PerkinElmer; Cat #6005182) using volumes of 100 μl/well. Cells were allowed to attach and then recover log phase growth over a 1 to 3 day time period, feeding daily with MEF conditioned medium supplemented with 8 ng/ml bFGF (R&D Systems; Cat #233-FB). Plates were maintained at 37° C., 5% CO2 in a humidified box throughout the duration of assay.
Screening was conducted using a library of the analogue compounds. Compounds from this library were made available as 5 mM stocks in 96-well plate format, solubilized in 100% DMSO (Sigma; Cat #D2650) and stored at −80° C. The library compounds were further diluted to an intermediate concentration of 0.2 mM in 50 mM HEPES (Invitrogen; Cat #15630-080), 20% DMSO and stored at 4° C. Test conditions were performed in triplicate, feeding on alternating days over a four-day assay period. Assays were initiated by aspirating culture medium from each well followed by three washes in PBS (Invitrogen; Cat #14190) to remove residual growth factors. On the first day of assay, test volumes of 200 μl per well were added to each well using DMEM:F12 base medium (Invitrogen; Cat #11330-032) supplemented with 0.5% FCS (HyClone; Cat #SH30070.03) and 200 ng/ml GDF-8 (R&D Systems, Cat #788-G8) plus 2.5 μM compound. On the third day of assay, test volumes of 100 μl per well were added to each well using DMEM:F12 base medium supplemented with 2% FCS plus 200 ng/ml GDF-8 (R&D Systems, Cat #788-G8). Positive control samples contained the same base medium supplemented with FCS and 1000 ng/ml recombinant human activin A (PeproTech; Cat #120-14) throughout the four-day assay along with Wnt3a (20 ng/ml) on days 1 and 2. Negative control samples contained DMEM:F12 base medium supplemented with FCS, adding Wnt3a on days 1 and 2 but omitting treatment with activin A.
At the conclusion of four-days of culture, assay plates were washed twice with PBS (Invitrogen; Cat #14190), fixed with 4% paraformaldehyde (Alexis Biochemical; Cat #ALX-350-011) at room temperature for 20 minutes, then washed three times with PBS and permeabilized with 0.5% Triton X-100 (Sigma; Cat #T8760-2) for 20 minutes at room temperature. Cells were washed again three times with PBS and blocked with 4% chicken serum (Invitrogen; Cat #16110082) in PBS for 30 minutes at room temperature. Primary antibody (goat anti-human SOX17; R&D Systems; Cat #AF1924) was diluted 1:100 in 4% chicken serum and added to each well for one hour at room temperature. Alexa Fluor 488 conjugated secondary antibody (chicken anti-goat IgG; Molecular Probes; Cat #AZ1467) was diluted 1:200 in PBS and added to each sample well after washing three times with PBS. To counterstain nuclei, 4 μg/ml Hoechst 33342 (Invitrogen; Cat #H3570) was added for ten minutes at room temperature. Plates were washed once with PBS and left in 100 μl/well PBS for imaging.
Imaging was performed using an IN Cell Analyzer 1000 (GE Healthcare) utilizing the 51008bs dichroic for cells stained with Hoechst 33342 and Alexa Fluor 488. Exposure times were optimized from positive control wells and from untreated negative control wells stained with secondary antibody alone. Images from 15 fields per well were acquired to compensate for any cell loss during the bioassay and subsequent staining procedures. Measurements for total cell number and total SOX17 intensity were obtained from each well using IN Cell Developer Toolbox 1.7 (GE Healthcare) software. […]

[2] = system: H1 human embryonic stem cells; experiment: Analog screening with GDF-8 and growth factor/agonist pool (Example 8, Tables 7 and 8); type: cell-based
Protocol: Briefly, clusters of H1 human embryonic stem cells were grown on reduced growth factor […]™ (Invitrogen; Cat #356231)-coated tissue culture plastic. Cells were passaged using collagenase (Invitrogen; Cat #17104-019) treatment and gentle scraping, washed to remove residual enzyme, and plated with even dispersal at a ratio of 1:1 (surface area) on reduced growth factor […]™-coated 96-well black plates (Packard ViewPlates; PerkinElmer; Cat #6005182) using volumes of 100 μl/well. Cells were allowed to attach as clusters and then recover log phase growth over a 1 to 3 day period, feeding daily with MEF conditioned medium supplemented with 8 ng/ml bFGF (R&D Systems; Cat #233-FB). Plates were maintained at 37° C., 5% CO2 in a humidified box throughout the duration of assay. Growth factors purchased from R&D Systems were EGF (Cat #236-EG), FGF4 (Cat #235-F4), PDGF-A (Cat #221-AA), PDGF-D (Cat #1159-SB), PDGF-A/B (Cat #222-AB). […] Screening was conducted using a library of compounds that were made available as 5 mM stocks in 96-well plate format, solubilized in 100% DMSO (Sigma; Cat #D2650) and stored at −80° C. The compounds were further diluted to an intermediate concentration of 0.2 mM in 50 mM HEPES (Invitrogen; Cat #15630-080), 20% DMSO and stored at 4° C. Test conditions were performed in single wells, feeding on alternate days over a four-day assay period. Primary screening assays were initiated by aspirating culture medium from each well followed by three washes in PBS (Invitrogen; Cat #14190) to remove residual growth factors and serum. On the first day of assay, test volumes of 200 μl per well were added back containing DMEM:F12 base medium (Invitrogen; Cat #11330-032) supplemented with 0.5% FCS (HyClone; […] Cat #1324-WN) plus 2.5 μM compound. All remaining growth factors were tested at a final assay concentration of 50 ng/ml (EGF, FGF4, PDGF-A, PDGF-A/B, VEGF) with the exception of GDF-8 tested at 25 ng/ml. […] Cat #120-14). […] All remaining growth factors were tested at a final assay concentration of 50 ng/ml (EGF, FGF4, PDGF-A, PDGF-A/B, VEGF) with the exception of GDF-8 tested at 25 ng/ml. […] Cat #120-14). Negative control samples contained DMEM:F12 base medium supplemented with 2% FCS. […] At the conclusion of four-days of culture, assay plates were washed twice with PBS (Invitrogen; Cat #14190), fixed with 4% paraformaldehyde (Alexis Biochemical; Cat #ALX-350-011) at room temperature for 20 minutes, then washed three times with PBS and permeabilized with 0.5% Triton X-100 (Sigma; Cat #T8760-2) for 20 minutes at room temperature. Cells were washed again three times with PBS and blocked with 4% chicken serum (Invitrogen; Cat #16110082) in PBS for 30 minutes at room temperature. Primary antibody (goat anti-human SOX17; R&D Systems; Cat #AF1924) was diluted 1:100 in 4% chicken serum and added to each well for one hour at room temperature. Alexa Fluor 488 conjugated secondary antibody (chicken anti-goat IgG; Molecular Probes; Cat #AZ1467) was diluted 1:200 in PBS and added to each sample well after washing three times with PBS. To counterstain nuclei, 4 μg/ml Hoechst 33342 (Invitrogen; Cat #H3570) was added for ten minutes at room temperature. Plates were washed once with PBS and left in 100 μl/well PBS for imaging. Imaging was performed using an IN Cell Analyzer 1000 (GE Healthcare) utilizing the 51008bs dichroic for cells stained with Hoechst 33342 and Alexa Fluor 488. Exposure times were optimized from positive control wells and from untreated negative control wells stained with secondary antibody alone. Images from 15 fields per well were acquired to compensate for any cell loss during the bioassay and subsequent staining procedures. […] Segmentation for the nuclei was determined based on gray-scale levels (baseline range 100-300) and nuclear size. Averages and standard deviations were calculated for each replicate data set. […]

[3] = Plate 2, compound + EGF, FGF, PDGF-A, VEGF, PDGF-D, muscimol, GDF8
[4] = Plate 2, compound + EGF, FGF, PDGF-A, VEGF, PDGF-D, muscimol, GDF8, positive control Activin A/Wnt3a
[5] = Table 8: hits with greater than 25% activity of the positive control, with GDF-8 and growth factors/agonists
[6] = Plate 1, compound + EGF, FGF, PDGF-A, VEGF, PDGF-D, muscimol, GDF8
[7] = Plate 1, compound + EGF, FGF, PDGF-A, VEGF, PDGF-D, muscimol, GDF8, positive control Activin A/Wnt3a

SMILES	Cell Number: Average Total Cell Number [1]	Sox17 Expression: Average Total Intensity [1]	Cell Number: % of positive control [1]	Sox17 Expression: % of positive control [1]	Cell Number, Average Total Cell Number [2, 3]	Sox17 Expression, Average Total Intensity [2, 3]	Cell Number, % of positive control [2, 4]	Sox17 Expression, % of positive control [2, 4]	Cell Number, % of positive control [2, 5]	Sox17 Expression, % of positive control [2, 5]	Sox17 Expression, Average Total Intensity [2, 5]	Cell Number, Average Total Cell Number [2, 6]	Sox17 Expression, Average Total Intensity [2, 6]	Cell Number, % of positive control [2, 7]	Sox17 Expression, % of positive control [2, 7]
CN1CCCC(=O)NCCc2cccc(c2)Nc2ncnc(n2)-c2cccc(c2)CCC1 [Compound 33, 20-Methyl-3,5,7,15,20,30-hexaazatetracyclo[22.3.1.1˜2,6˜0.1˜8,12˜]triaconta-1(28), 2(30), 3,5,8(29), 9,11,24,26-nonaen-16-one]	2362	6.60E+06	15.4%	2.0%	7485	8.10E+07	47.4 % of positive control	28.3 % of positive control	47.4 % of positive control	28.3 % of positive control	8.10E+07	–	–	–	–
O=C1NCCc2cccc(c2)Nc2ncnc(n2)-c2cccc(c2)CCCN2CCC1CC2 [Compound 31, 1,11,13,15,23,31-Hexaazapentacyclo[23.2.2.1˜5,9˜0.1˜10,14˜0.1˜16,20˜]dotriaconta-5(32), 6,8,10(31), 11,13,16(30), 17,19-nonaen-24-one]	3619	1.36E+07	24.1%	3.9%	–	–	–	–	51.9 % of positive control	26.3 % of positive control	6.59E+07	6957	6.59E+07	51.9 % of positive control	26.3 % of positive control
CN1CCCc2cccc(c2)-c2ncnc(n2)Nc2cccc(c2)CCNC(=O)C1 [Compound 28, 18-Methyl-3,5,7,15,18,28-hexaazatetracyclo[20.3.1.1˜2,6˜0.1˜8,12˜]octacosa-1(26), 2(28), 3,5,8(27), 9,11,22,24-nonaen-16-one]	5236	4.03E+07	37.5%	13.1%	7591	8.77E+07	48.0 % of positive control	30.7 % of positive control	48.0 % of positive control	30.7 % of positive control	8.77E+07	–	–	–	–
O=C1CCN2CCN(CC2)Cc2cc(ccc2Cl)Nc2ncnc(n2)-c2ccnc(c2)CCCN1 [Compound 27, 4-Chloro-1,8,10,12,17,22,26,32-octaazapentacyclo[24.2.2.1˜3,7˜1.˜9,13˜0.1˜14,18˜1]tritriaconta-3(33), 4,6,9(32), 10,12,14(31), 15,17-nonaen-23-one]	3721	1.19E+07	26.7%	3.9%	8044	8.81E+07	50.9 % of positive control	30.8 % of positive control	50.9 % of positive control	30.8 % of positive control	8.81E+07	–	–	–	–
